{"source": "patent US6645913B2", "about": "“Adjuvant composition” (Cognis Corporation, priority 1999, dated 2003)", "origin": "cited, not measured here", "details": "glyphosate in acid form"}
{"smiles": "O=C(O)CNCP(=O)(O)O", "note": "[glyphosate, N-phosphonomethylglycine]", "values": [{"measurement": "water solubility", "value": "about 1.2%"}]}
